Laboratory results as given in article PMC10650108 (Molecules, 2023).
“Also recorded” adds a separate entry of the source. One block for each sequence: values may come before it. Ends that are not written are not given here.

How the values were obtained:
[1] = In vitro metabolic incubation with human liver microsomes, UHPLC-HRMS metabolite profiling; assay type: in vitro ADME; settings: 37 °C, 2 h
Description: (§1) Mixed-gender human liver microsomes (10-Donor Pool, total protein concentration of 20 mg/mL) and mixed-gender human skin S9 (3-Donor Pool, total protein concentration of 1.89 mg/mL) were purchased from BioreclamationIVT (Westbury, NY, USA). Phosphate buffered saline (PBS, pH 7.2~7.4) was obtained from Sangon Biotech Co., Ltd. (Shanghai, China). BPC-157 (HPLC purity > 99%) and (Deamino-cysl, val4, D-arg8)-Vasopressin (DCVDV, internal standard, ISTD) were purchased from Alta Scientific Co., Ltd. (Tianjin, China). ^13C6,^15N2-BPC-157 (labeled BPC-157, HPLC purity > 98%) was purchased from Synpeptide Co., Ltd. (Nanjing, China). BPC-157 (2–15) free acid, BPC-157 (1–13) free acid, BPC-157 (2–13) free acid, BPC-157 (1–12) free acid, BPC-157 (3–15) free acid, BPC-157 (1–8) free acid, and BPC-157 (2–8) free acid were synthesized by Alta Scientific Co., Ltd. (Tianjin, China). MgCl2 was from Beyotime Biotechnology (Shanghai, China). Nicotinamide adenine dinucleotide phosphate (NADPH) was purchased from Vetec (Shanghai, China). Acetonitrile (ACN), methanol (MeOH), and formic acid (FA) were of LC-MS grade and were obtained from Thermo Fisher Scientific (San Jose, CA, USA). Milli-Q purified water (MerckMillipore, Vimodrone, Milan, Italy) was used for sample preparation, reference material dilution, and LC mobile phase preparation. […]

[2] = mixed-gender human liver microsomes (10-Donor Pool) in PBS with MgCl2 and NADPH; settings: 37 °C, up to 2 h
[3] = In vitro metabolic incubation with human skin S9, UHPLC-HRMS metabolite profiling; assay type: in vitro ADME; settings: human skin S9 0.189 mg/mL, 37 °C, 2 h
Description: as §1

[4] = mixed-gender human skin S9 (3-Donor Pool) in PBS; settings: 37 °C, up to 2 h
[5] = in vitro plasma metabolism; settings: cited from earlier work

Sequence: EPPPGKPADDAG [BPC-157 (2–13) free acid (M3), BPC-157 (2–13) free acid]
- Detection of metabolite in the human liver microsome incubation system (in words) ([1]; human liver microsomes 1 mg/mL, NADPH, UHPLC-HRMS): only detected in the human liver microsome incubation system

- fragment found [2]: labeled M9
Sequence: GEPPPGKPADDAGLV [labeled BPC-157]

Sequence: GKPADDAGLV [BPC-157 (6–15) free acid (M7), BPC-157 (6–15) free acid]
- Detection of metabolite in the human skin S9 incubation system (in words) [3]: only detected in the human skin S9 incubation system

- cleaved bond [4]: glycine1-E2, major
- cleaved bond [2]: glycine1-E2, major
Sequence: GEPPPGKPADDAGLV [BPC-157]
- fragment found [4]: BPC-157 (1–14) free acid (M6), GEPPPGKPADDAGL; also recorded: BPC-157 (2–8) free acid (M1), EPPPGKP, major; also recorded: BPC-157 (1–8) free acid (M2), GEPPPGKP, major; also recorded: BPC-157 (1–13) free acid (M4), GEPPPGKPADDAG, major
- fragment found [5]: BPC-157 (2–15) free acid (M8), major; also recorded: BPC-157 (2–13) free acid
- fragment found [2]: BPC-157 (1–14) free acid (M6), GEPPPGKPADDAGL; also recorded: BPC-157 (2–8) free acid (M1), EPPPGKP, major; also recorded: BPC-157 (1–8) free acid (M2), GEPPPGKP, major; also recorded: BPC-157 (1–13) free acid (M4), GEPPPGKPADDAG, major

Sequence: EPPPGKPADDAGL [BPC-157 (2–14) free acid (M5), BPC-157 (2–14) free acid]
- Detection of metabolite in the human skin S9 incubation system (in words) [3]: only detected in the human skin S9 incubation system

Sequence: EPPPGKPADDAGLV [BPC-157 (2–15) free acid (M8), BPC-157 (2–15) free acid]
- Relative response of metabolites (relative abundance) ([1]; both incubation systems (human liver microsomes and human skin S9), relative to the most abundant metabolite M8): most abundant metabolite in both incubation systems
